Results as given in patent US20240207236A1, “COMPOUND FOR PREVENTING OR TREATING DIABETES” (ONCOCROSS CO., LTD., priority 2021, published 2024).

Experiments:
Format in all cases: in vivo, mice (C57BL/6)
[1] = Drinking water intake of mice in STZ-induced insulin-resistant diabetes model; set-up: unit not given here
Method: (§1) STZ (Sigma-aldrich, S0130, 40 mg/kg b.w., in 0.1 M citrate buffer pH 4.5) was intraperitoneally administered to 9-week-old male mice (C57BL/6) once/1 day for 5 days to perform a first disease induction. After 7 weeks of the first induction, a second induction was performed using the same method as the first induction. For 5 days of an STZ administration period for the first induction, 10% sucrose was administered as drinking water. In addition, after 14 days of the second administration, blood sugar was confirmed to confirm the induction rate, and the induced animals were separated into groups. Experimental substances (R)-4-{(R)-1-[7-(3,4,5-trimethoxy-phenyl)-[1,6] naphthyridine-5-yloxy]-ethyl}pyrrolidine-2-one (BI-1002494) and cromolyn (OC-101) were administered orally into the stomach at 10 mL/kg using an oral administration syringe (sonde) before 16:00 daily for 12 weeks at a frequency of 7 days/week at doses shown in Table 1 below, respectively, and dexamethasone was orally administered as a positive control substance.

[2] = tested on: animal model of insulin-resistant diabetes; assay: Blood sugar, tail vein blood, blood sugar meter, 4 h fasting; set-up: blood sugar, Mean: unit not given here
Method: as §1
Before disease induction, excluding week 9 of administration of experimental substances to mice in each group of Example 1 above, after 2 weeks after the first induction (based on a first administration date), and after 6 weeks and 2 weeks of the second induction (based on the first administration date), blood was collected from the tail vein and blood sugar was measured using a blood sugar meter (Accu-Check, Roche), and fasting was performed for 4 hours from 9:30 a.m. to 1:30 p.m.

[3] = tested on: animal model of insulin-resistant diabetes; assay: Blood insulin (Mouse Insulin ELISA) and HOMA-IR
Method: as §1
After the observation period for mice of each group in Example 1 was terminated, all surviving animals were fasted in the same manner as when measuring blood sugar, and then anesthetized by inhaling isoflurane, and blood was collected from the abdominal vena cava through laparotomy. After the blood collection was completed, the veins and arteries were cut under anesthesia and exsanguinated. The collected blood was left at room temperature for 30 minutes or more and then centrifuged at 3,000 rpm for 20 minutes. Thereafter, glucose, blood urea nitrogen (BUN), and creatinine were analyzed using an automated blood biochemistry analyzer (Hitachi 3100, Hitachi Co. Ltd., Japan). Indoxyl sulfate (a substance that was mainly produced in the intestines to cause kidney damage, and a substance that caused end-stage renal failure by advancing kidney function damage in patients with renal failure during hemodialysis) was analyzed using LC MS/MS. In addition, blood insulin was analyzed according to a method represented by a commercial Mouse Insulin ELISA KIT (#AKRIN-011T, Sibayagi Co. Ltd., Japan).

[4] = tested on: animal model of insulin-resistant diabetes; assay: Histopathological change of liver, kidney and pancreas (H&E); details: for Kidney Medullar apoptosis / Kidney Medullar mineralization / Kidney NHL / Kidney bowman's capsule hyperplasia / Kidney pappillary mineralization / Liver Apoptosis / Liver Cytoplasmic glycogen / Liver Eosinophlic focus of cellular alteration / Liver Mononuclear cell infiltrate / Liver NHL / Pancrease Apoptosis / Pancrease NHL / Pancrease islet degeneration / Pancrease islet hypertrophy / Pancrease islet, mononuclear cell infillitrate: count in group of 10 animals
Method: as §1
At the end of the observation period, the mice in each group of Example 1 were confirmed to be dead, and the liver, kidney, and pancreas were extracted and fixed with 10% neutral buffered formalin (NBF) in at least 20 times the tissue volume. The fixed tissue was sectioned to a thickness of approximately 4 mm and then produced into a paraffin block through general tissue processing and embedding processes. Thereafter, the tissue was sectioned to a thickness of 4 μm using a rotary microtome, and then H&E staining was performed, and histopathological changes were observed.

[5] = after induction of diabetic disease, 12.5-50 mg/kg
[6] = administered groups 12.5-50 mg/kg, Table 8 and FIG. 2

## COc1cc(-c2cc3ncccc3c(O[C@H](C)[C@H]3CNC(=O)C3)n2)cc(OC)c1OC [BI-1002494, (R)-4-{(R)-1-[7-(3,4,5-trimethoxy-phenyl)-[1,6]naphthyridine-5-yloxy]-ethyl}pyrrolidine-2-one]
[1]; 12.5 mg/kg/day oral, week 1
  drinking water intake, Mean: 7.91
[1]; 12.5 mg/kg/day oral, week 2
  drinking water intake, Mean: 7.41
[1]; 12.5 mg/kg/day oral, week 4
  drinking water intake, Mean: 7.08
[1]; 12.5 mg/kg/day oral, week 5
  drinking water intake, Mean: 7.16
[1]; 12.5 mg/kg/day oral, week 6
  drinking water intake, Mean: 7.34
[1]; 12.5 mg/kg/day oral, week 7
  drinking water intake, Mean: 7.24
[1]; 12.5 mg/kg/day oral, week 8
  drinking water intake, Mean: 6.99
[1]; 12.5 mg/kg/day oral, week 9
  drinking water intake, Mean: 7.40
[1]; 25 mg/kg/day oral, week 0
  drinking water intake, Mean: 7.07
[1]; 25 mg/kg/day oral, week 1
  drinking water intake, Mean: 7.62
[1]; 25 mg/kg/day oral, week 3
  drinking water intake, Mean: 7.38
[1]; 25 mg/kg/day oral, week 4
  drinking water intake, Mean: 6.73
[1]; 25 mg/kg/day oral, week 5
  drinking water intake, Mean: 7.19
[1]; 25 mg/kg/day oral, week 6
  drinking water intake, Mean: 7.34
[1]; 25 mg/kg/day oral, week 7
  drinking water intake, Mean: 7.69
[1]; 25 mg/kg/day oral, week 8
  drinking water intake, Mean: 7.43
[1]; 25 mg/kg/day oral, week 9
  drinking water intake, Mean: 7.54
[1]; 25 mg/kg/day oral, week 10
  drinking water intake, Mean: 7.15
[1]; 50 mg/kg/day oral, week 0
  drinking water intake, Mean: 7.27
[1]; 50 mg/kg/day oral, week 1
  drinking water intake, Mean: 7.04
[1]; 50 mg/kg/day oral, week 3
  drinking water intake, Mean: 6.95
[1]; 50 mg/kg/day oral, week 4
  drinking water intake, Mean: 7.13
[1]; 50 mg/kg/day oral, week 5
  drinking water intake, Mean: 6.48
[1]; 50 mg/kg/day oral, week 9
  drinking water intake, Mean: 6.51
[1]; 50 mg/kg/day oral, week 10
  drinking water intake, Mean: 6.22
[2]; 12.5 mg/kg/day oral, value column 2 of 6, head prints only weeks 0, 4, 8, 10
  blood sugar, Mean: 319.5
[2]; 12.5 mg/kg/day oral, week 0
  blood sugar, Mean: 291.1
[2]; 25 mg/kg/day oral, value column 2 of 6, head prints only weeks 0, 4, 8, 10
  blood sugar, Mean: 310.1
[2]; 25 mg/kg/day oral, week 0
  blood sugar, Mean: 301.2
[2]; 50 mg/kg/day oral, value column 2 of 6, head prints only weeks 0, 4, 8, 10
  blood sugar, Mean: 264.5
[2]; 50 mg/kg/day oral, week 0
  blood sugar, Mean: 303.7
[2]; administered group, dose not specified
  blood sugar compared to the positive control group: decreased significantly
[2]; [5]
  blood sugar, summary: decreased in a dose-dependent manner
[3]; 25 mg/kg
  HOMA-IR compared with the disease control group: statistically significantly reduced
[3]; 50 mg/kg
  HOMA-IR compared with the disease control group: statistically significantly reduced
[3]; [5]
  insulin resistance (HOMA-IR), summary: decreased in a dose-dependent manner
[4]; 12.5 mg/kg (G4)
  Kidney Medullar apoptosis: 3
  Kidney Medullar mineralization: 0
  Kidney NHL: 7
  Kidney bowman's capsule hyperplasia: 0
  Kidney pappillary mineralization: 0
  Liver Apoptosis: 2
  Liver Cytoplasmic glycogen: 1
  Liver Eosinophlic focus of cellular alteration: 0
  Liver Mononuclear cell infiltrate: 1
  Liver NHL: 7
  Pancrease Apoptosis: 1
  Pancrease NHL: 5
  Pancrease islet degeneration: 2
  Pancrease islet hypertrophy: 1
  Pancrease islet, mononuclear cell infillitrate: 1
[4]; 25 mg/kg (G5)
  Kidney Medullar apoptosis: 2
  Kidney Medullar mineralization: 1
  Kidney NHL: 7
  Kidney bowman's capsule hyperplasia: 0
  Kidney pappillary mineralization: 0
  Liver Apoptosis: 3
  Liver Cytoplasmic glycogen: 0
  Liver Eosinophlic focus of cellular alteration: 0
  Liver Mononuclear cell infiltrate: 2
  Liver NHL: 7
  Pancrease Apoptosis: 0
  Pancrease NHL: 8
  Pancrease islet degeneration: 1
  Pancrease islet hypertrophy: 1
  Pancrease islet, mononuclear cell infillitrate: 0
[4]; 50 mg/kg (G6, G7)
  Kidney Medullar apoptosis: 1
  Kidney Medullar mineralization: 2
  Kidney NHL: 7
  Kidney bowman's capsule hyperplasia: 0
  Kidney pappillary mineralization: 0
  Liver Apoptosis: 2
  Liver Cytoplasmic glycogen: 0
  Liver Eosinophlic focus of cellular alteration: 0
  Liver Mononuclear cell infiltrate: 1
  Liver NHL: 8
  Pancrease Apoptosis: 0
  Pancrease NHL: 7
  Pancrease islet degeneration: 1
  Pancrease islet hypertrophy: 2
  Pancrease islet, mononuclear cell infillitrate: 0
[4]; [6]
  cytoplasmic glycogen in the liver: reduced in the liver
  medullar apoptosis in the kidney: reduced in the kidney in a dose-dependent manner
